From article PMC8626775, “Anti-schistosomal activities of quinoxaline-containing compounds: From hit identification to lead optimisation” (European Journal of Medicinal Chemistry, 2021) come the findings set out here.

pEC50: −log10 of the molar value. Where two headings read alike, the source gives them in different places.

The subject of series [1] is HepG2 cells. The series is described as follows: HepG2 MTT cytotoxicity assay. The following applies: for Toxicity on HepG2 in words: 24 h; for Selectivity Index (SI) Adult worms: HepG2 CC50 versus adult worm EC50; for Selectivity Index (SI) Somula: HepG2 CC50 versus schistosomula EC50. The method, then:
Initially the cells were handled under sterile conditions and grown at 37 °C in a humidified atmosphere containing 5% CO2. Cytotoxicity was evaluated by way of a 3-(4, 5- dimethylthiazol-2-yl)-2,5-diphenyl tetrazolium bromide (MTT) assay as previously described. The cells were counted in a dual chamber counting slide using the BIORAD TC-10 Automated cell counter, seeded in a 96-well plate (Fisher Scientific, Loughborough, UK) at a density of 2 × 10^4 cells/well and incubated in an atmosphere of 5% CO2 at 37 °C. […] The absorbance readings (at 570 nm) of the soluble formazan crystals were recorded using PolarStar Omega plate reader (BMG-Labtech). […] The latter was used to calculate the selectivity index (SI) of the compounds presented herein.
(In general: Formazan colour is commonly taken as a measure of viable cells.)

Series [2] deals with S. mansoni schistosomula. The series is described as follows: S. mansoni schistosomula high-throughput phenotype and motility screen (Roboworm), 72 h. The following applies: Schistosoma mansoni; for pEC50: read-out: EC50 on schistosomula (bounds and ranges given). Type of series: cell-based, Schistosoma mansoni. The method, then: Cercariae derived from the NMRI ([…]) Puerto Rican strain (PR-1) of S. mansoni were shed from two Biomphalaria glabrata strains, the NMRI albino and pigmented outbred strains, under intensified lighting conditions (1 h of incubation at 26 °C). Cercariae were then mechanically transformed into schistosomula as previously described.
High-throughput screening (HTS) of selected compounds was conducted as previously described. Briefly, newly transformed schistosomula were distributed in a 384-well tissue culture plate (PerkinElmer, cat 6007460, seeding density of 120 parasites/well). Each compound (at a single concentration or two-fold titrations) was transferred into individual wells alongside the positive and negative controls (AUR at 10 μM final concentration in 0.625% DMSO and 0.625% DMSO, respectively). Schistosomula/compound co-cultures were then incubated at 37 °C for 72 h in a humidified atmosphere containing 5% CO2. Following the co-culture period, automatic assessment of compound-induced schistosomula motility and phenotypic changes were conducted with the high-content imaging platform Roboworm using the image analysis model previously described by Paveley et al..

The test system of series [3] is S. mansoni adult worms. In words: S. mansoni adult worm motility screen (WormassayGP2), 72 h. Type of series: cell-based, Schistosoma mansoni. The following applies: Schistosoma mansoni. The source says:
Mice (Mus musculus HsdOLa:TO - Tuck Ordinary; Envigo, UK) were used for the mammalian-specific propagation of the S. mansoni life cycle. Experimental animals were infected with 4000 or 180 S. mansoni cercariae/mouse and perfused three- or seven-weeks post-infection to obtain S. mansoni juvenile or adult worms, respectively. Preparation steps following perfusion have been described previously. Briefly, the parasite material was washed three times with pre-warmed adult worm media (DMEM (Gibco, Paisley, UK) supplemented with 10% (v/v) Fetal Calf Serum (FCS, Gibco, Paisley, UK), 1% (v/v) L-glutamine (Gibco, Paisley, UK) and an antibiotic mixture (150 Units/ml penicillin and 150 μg/ml streptomycin; Gibco, UK)) to remove residual host contamination and incubated in a humidified environment containing 5% CO2 at 37 °C for at least 1 h.
For the evaluation of anti-schistosomal activity on the adult stage of the parasite, 7-wk old worms were transferred into 48 well tissue culture plates (1–3 worm pairs/well, in duplicate). […] DMSO (0.5%) and praziquantel (10 μM in 0.5% DMSO) were also included as negative and positive control treatments. Treated adult worms were incubated for 72 h in a humidified environment containing 5% CO2 at 37 °C. Parasite motility after compound treatment was assessed by a digital image processing-based system (WormassayGP2), modified after Wormassay. Following compound-parasite co-incubation, eggs were collected, fixed in formalin (10% v/v formaldehyde) and enumerated aiming to collect further information on any compound-induced effects on parasite fecundity and IVLE production.

Series [4] relates to adult S. japonicum male worms. In words: In vitro screening of S. japonicum adults at 100 nM (WormAssay motility, descriptors, severity score). Type of series: cell-based, Schistosoma japonicum. On the procedure: For each species, parasite recovery involved reverse perfusion of the hepatic portal and mesenteric system using DMEM (Fisher Scientific). Parasites were washed six times with Basch 169 medium supplemented with 100 U/ml penicillin and 100 μg/ml streptomycin before manually distributing approximately 5 males per well (on occasion 1 or 2 females might also be present) of a 24-well plate (Corning Costar 3524). […] The next morning, a final concentration of 100 nM compound (in 1 μL DMSO) was added to each well and the final volume made up to 2 ml with Basch 169 medium supplemented with antibiotics and FBS. Each compound was tested in triplicate (except for some instances tested in duplicate). […] The phenotypic characterisation of compound effects focused on male worms due to the greater range of their motility characteristics that include flexing, bending, stretching, sucker walking and adherence, compared to the more sedentary female worms. In addition to descriptors, WormAssay, as adapted for the schistosome, was used to measure average worm motility per well [72, 73].

[5] abbreviates: 72 h, Table 2, average of phenotype and motility EC50, 72 h, read-out: Activity on schistosomula (EC50, μM - 72 h) Average.
Where [6] appears, read: 72 h, Table 2, motility, 72 h, three replicate titrations (0.313–10 μM), read-out: Activity on schistosomula (EC50, μM - 72 h) M.
[7] abbreviates: 72 h, Table 2, phenotype, 72 h, three replicate titrations (0.313–10 μM), read-out: Activity on schistosomula (EC50, μM - 72 h) P.
The mark [8] stands for this setting: Table 5, Series C, read-out: Anti-schistosomal activity EC50 Schistosomula (μM) Motility.
Where [9] appears, read: Table 5, Series C, read-out: Anti-schistosomal activity EC50 Schistosomula (μM) Phenotype.
[10] abbreviates: Table 5, Series C, read-out: Anti-schistosomal activity EC50 Adult (nM) Motility.
[11] abbreviates: Table 2, 72 h, titrations 0.0095–5 μM, WormassayGP2, read-out: Activity on adult worms (EC50, μM - 72 h) Motility.
Where [12] appears, read: Table 4, Series A, read-out: Anti-schistosomal activity EC50 Schistosomula (μM) Motility.
[13] abbreviates: Table 4, Series A, read-out: Anti-schistosomal activity EC50 Schistosomula (μM) Phenotype.
Where [14] appears, read: Table 4, Series A, read-out: Anti-schistosomal activity EC50 Adult (nM) Motility.

In the case of `Nc1ccc2nc(Nc3ccc(Cl)c(Cl)c3)c(Nc3ccc(Cl)c(Cl)c3)nc2c1` [Compound 22a, N^2, N^3-bis(3,4-dichlorophenyl)quinoxaline-2,3,6-triamine], in series [1], the “Toxicity on HepG2 in words” value is “low toxicity”. The EC50 in series [2] (setting [5]) was determined as 3.38 µM; in series [2] (setting [6]), 3.25 µM; in series [2] (setting [7]), 3.51 µM. Also, the pEC50 in series [2] (72 h) is below 5.70.
On to `CC(=O)Nc1ccc2nc(Nc3ccc(Cl)c(Cl)c3)c(Nc3ccc(Cl)c(Cl)c3)nc2c1` [Compound 22c, N-(2,3-bis((3,4-dichlorophenyl)amino)quinoxalin-6-yl)acetamide], for which the “Selectivity Index (SI) Adult worms” value in series [1] was found to be 6.52. In addition, the “Selectivity Index (SI) Somula” value in series [1] came to 1.57. Also, the EC50 in series [2] (setting [5]) was determined as 2.91 µM; in series [2] (setting [6]), 2.79 µM; in series [2] (setting [7]), 3.04 µM; in series [2] (setting [8]), 2.79 µM; in series [2] (setting [9]) it was 3.04 µM; in series [3] (setting [10]) it was 704 nM. For the same molecule, the EC50 in series [3] (setting [11]) stood at 704 nM. Also, in series [2] (72 h), the pEC50 was below 5.70.
In the case of `CCCCCC(=O)Nc1ccc2nc(Nc3ccc(Cl)c(Cl)c3)c(Nc3ccc(Cl)c(Cl)c3)nc2c1` [Compound 22d, N-(2,3-bis((3,4-dichlorophenyl)amino)quinoxalin-6-yl)hexanamide], the “Toxicity on HepG2 in words” value in series [1] was “low toxicity”. In addition, the “Selectivity Index (SI) Adult worms” value in series [1] stood at 7.65. In series [1], the “Selectivity Index (SI) Somula” value was 1.72. The EC50 was 1.41 µM in series [2] (setting [5]); 1.8 µM in series [2] (setting [6]); 1.02 µM in series [2] (setting [7]); 1.8 µM in series [2] (setting [8]); 1.02 µM in series [2] (setting [9]); 318 nM in series [3] (setting [10]). For the same molecule, in series [3] (setting [11]), the EC50 was 318 nM.
As for `O=C(Nc1ccc2nc(Nc3ccc(Cl)c(Cl)c3)c(Nc3ccc(Cl)c(Cl)c3)nc2c1)c1ccco1` [Compound 22f, N-(2,3-bis((3,4-dichlorophenyl)amino)quinoxalin-6-yl)furan-2-carboxamide], in series [1], the “Selectivity Index (SI) Somula” value worked out at 2.91. Besides, the EC50 in series [2] (setting [5]) was 1.95 µM; in series [2] (setting [6]), 2 µM; in series [2] (setting [7]) it was 1.91 µM; in series [2] (setting [8]), 2 µM; in series [2] (setting [9]), 1.91 µM.
As for `O=[N+]([O-])c1ccc2nc(Nc3cccc(Cl)c3)c(Nc3cccc(Cl)c3)nc2c1` [Compound 25, N^2, N^3-bis(3-chlorophenyl)-6-nitroquinoxaline-2,3-diamine], the “Selectivity Index (SI) Adult worms” value in series [1] is on record as 47.99. For the same molecule, the “Selectivity Index (SI) Somula” value in series [1] was found to be 0.46. The EC50 in series [2] (setting [5]) is 1.26 µM; in series [2] (setting [6]) it was 1.3 µM; in series [2] (setting [7]) it was 1.22 µM; in series [2] (setting [12]), 1.3 µM; in series [2] (setting [13]), 1.22 µM; in series [3] (setting [14]), 12 nM. Also, the EC50 in series [3] (setting [11]) was determined as 12 nM. Besides, the “Effect on S. japonicum adult male worms” value in series [4] (5, 24, 48 and 72 h) is “decreased motility starting at 48 h”. Besides, the “SEVERITY SCORES 5 h” value in series [4] (S. japonicum, 5 h, max = 4, one line per replicate) came out at 0. Also, in series [4] (S. japonicum, 24 h, max = 4, one line per replicate), the “SEVERITY SCORES 24 h” value amounted to 0. Also, in series [4] (S. japonicum, 48 h, max = 4, one line per replicate), the “SEVERITY SCORES 48 h” value is given as 2. Besides, the “DESCRIPTORS 48 h” value in series [4] (S. japonicum, 48 h, one line per replicate) is listed as “S, on sides”. Moreover, the “SEVERITY SCORES 72 h” value in series [4] (S. japonicum, 72 h, max = 4, one line per replicate) stood at 2. Also, in series [4] (S. japonicum, 72 h, one line per replicate), the “DESCRIPTORS 72 h” value is given as “S+, on sides”.
With `O=[N+]([O-])c1ccc2nc(Nc3ccc(F)cc3)c(Nc3ccc(F)cc3)nc2c1` [Compound 28, N2, N3-bis(4-fluorophenyl)-6-nitroquinoxaline-2,3-diamine], the “Toxicity on HepG2 in words” value in series [1] is “low toxicity”. The EC50 in series [2] (setting [5]) worked out at 1.77 µM; in series [2] (setting [6]), 1.4 µM; in series [2] (setting [7]) it was 2.14 µM; in series [2] (setting [12]), 1.4 µM; in series [2] (setting [13]), 2.14 µM; in series [3] (setting [14]), 382 nM. In addition, in series [3] (setting [11]), the EC50 worked out at 382 nM.
For `O=[N+]([O-])c1ccc2nc(Nc3ccc(Br)cc3)c(Nc3ccc(Br)cc3)nc2c1` [Compound 29, N2, N3-bis(4-bromophenyl)-6-nitroquinoxaline-2,3-diamine], the “Selectivity Index (SI) Adult worms” value in series [1] is 32.52. Besides, the “Selectivity Index (SI) Somula” value in series [1] worked out at 5.55. In addition, the concentration for a half-maximal effect (EC50) in series [2] (setting [5]) came to 0.71 µM; in series [2] (setting [6]), 0.65 µM; in series [2] (setting [7]) it was 0.78 µM; in series [2] (setting [12]), 0.83 µM; in series [2] (setting [13]), 1.06 µM; in series [3] (setting [14]) it was 122 nM. Besides, the EC50 in series [3] (setting [11]) is 122 nM.
With `O=[N+]([O-])c1ccc2nc(Nc3ccc(F)c(C(F)(F)F)c3)c(Nc3ccc(F)c(C(F)(F)F)c3)nc2c1` [Compound 32, N2, N3-bis(4-fluoro-3-(trifluoromethyl)phenyl)-6-nitroquinoxaline-2,3-diamine], the “Selectivity Index (SI) Adult worms” value in series [1] amounted to 60.99. Also, the “Selectivity Index (SI) Somula” value in series [1] amounted to 0.94. In addition, the EC50 was 0.72 µM in series [2] (setting [5]); 0.54 µM in series [2] (setting [6]); 0.89 µM in series [2] (setting [7]); 0.54 µM in series [2] (setting [12]); 0.89 µM in series [2] (setting [13]); 11 nM in series [3] (setting [14]). The EC50 in series [3] (setting [11]) came to 11 nM.
As for `O=[N+]([O-])c1ccc2nc(NCc3ccccc3)c(NCc3ccccc3)nc2c1` [Compound 36, N2, N3-dibenzyl-6-nitroquinoxaline-2,3-diamine], the “Selectivity Index (SI) Somula” value in series [1] stood at 1.74. For the same molecule, the EC50 was 2.91 µM in series [2] (setting [5]); 2.64 µM in series [2] (setting [6]); 3.19 µM in series [2] (setting [7]); 2.64 µM in series [2] (Table 3, read-out: Anti-schistosomal activity EC50 (μM) Schistosomula Motility); 3.19 µM in series [2] (Table 3, read-out: Anti-schistosomal activity EC50 (μM) Schistosomula Phenotype). Further, the pEC50 in series [2] (72 h) is below 5.70.

One may read the EC50 as the concentration at which the effect is half-maximal. As a reminder, the pEC50 is the negative decadic logarithm of the EC50, by convention in mol/L.
